Measured values taken from PubChem BioAssay AID1259408 (Genetic Toxicology Data Bank (GENE-TOX), 2018).
Calls of active or inactive are those of the source. The rule behind the calls is not given here.

Test system: GENE-TOX genotoxicity assays, various organisms and cells
Assay: GENE-TOX mutagenicity studies
Settings: for call: Assay Type: In vivo carcinogenicity studies
[1] = Species/Cell Type: Human diploid fibroblasts, Assay Type: Unscheduled DNA synthesis (UDS) in vitro, DNA effects, Assay Code: UDH-, Evaluation Type: Evaluation A (Pre-1980)
[2] = Species/Cell Type: Salmonella typhimurium (one or more of the five standard strains: TA98, TA100, TA1535, TA1537, and TA1538), Assay Type: Histidine reverse gene mutation, Ames assay, Assay Code: SALT, Evaluation Type: Evaluation A (Pre-1980)
[3] = Species/Cell Type: Escherichia coli polA (W3119 vs P3478), Assay Type: Rec-assay, DNA effects (bacterial DNA repair), Assay Code: RE1-, Evaluation Type: Evaluation A (Pre-1980)

**Q.** For `O=C(O)/C=C/c1ccc(O)c(O)c1`, which mutagenic call (Species/Cell Type: Mammalian polychromatic erythrocytes, Assay Type: Micronucleus test, chromosome aberrations, Assay Code: MNTT, Evaluation Type: Evaluation B (Post-1980)) is on record?
**A.** The mutagenic call was “no conclusion”.

**Q.** `S=C([S-])NCCNC(=S)[S-].[Zn+2]` was tested. Which mutagenic call [1] did it give?
**A.** Its mutagenic call is “inactive; negative”.

**Q.** What about the mutagenic call (Species/Cell Type: Saccharomyces cerevisiae, Assay Type: Mitotic recombination or gene conversion, Assay Code: YEC+, Evaluation Type: Evaluation A (Pre-1980)) of the same compound?
**A.** Its mutagenic call is “active; positive”.

**Q.** What about the mutagenic call (Species/Cell Type: Saccharomyces cerevisiae, Assay Type: Mitotic recombination or gene conversion, Assay Code: YEH-, Evaluation Type: Evaluation A (Pre-1980)) of the same compound?
**A.** The mutagenic call was “inactive; negative”.

**Q.** For `O=c1[nH]c(=O)n([C@H]2C[C@H](O)[C@@H](CO)O2)cc1/C=C/Cl`, which mutagenic call (Species/Cell Type: Human, Assay Type: Sister-chromatid exchange (SCE) in vitro, Assay Code: SC1+D, Dose Response: With dose response, Evaluation Type: Evaluation B (Post-1980)) is on record?
**A.** Its mutagenic call is “active; positive”.

**Q.** `CCCCBr` was tested. Which mutagenic call (Species/Cell Type: Escherichia coli polA (W3119 vs P3478), Assay Type: Rec-assay, DNA effects (bacterial DNA repair), Assay Code: RE1T, Evaluation Type: Evaluation A (Pre-1980)) did it give?
**A.** The mutagenic call was “no conclusion”.

**Q.** For `CCCCOc1ccc2nc3cc(Cl)ccc3c(NCCCN(CC)CCCl)c2n1`, which mutagenic call (Species/Cell Type: Chinese hamster ovary (CHO) cells, Assay Type: Forward gene mutation at the HPRT locus, Assay Code: CHO+, Evaluation Type: Evaluation B (Post-1980)) is on record?
**A.** Its mutagenic call is “active; positive”.

**Q.** `Cn1c[n+](C)cc1[N+](=O)[O-]` was tested. Which mutagenic call [2] did it give?
**A.** Its mutagenic call is “no conclusion”.

**Q.** For `O=c1[nH]c(=O)n([C@H]2C[C@H](O)[C@@H](CO)O2)cc1F`, which mutagenic call (Species/Cell Type: Aspergillus nidulans, Assay Type: Aneuploidy, chromosome aberrations, Assay Code: ASNT, Evaluation Type: Evaluation A (Pre-1980)) is on record?
**A.** Its mutagenic call is “no conclusion”.

**Q.** And the mutagenic call (Species/Cell Type: Aspergillus nidulans, Assay Type: Mitotic recombination, Assay Code: ASG+, Evaluation Type: Evaluation A (Pre-1980))?
**A.** The mutagenic call was “active; positive”.

**Q.** What about the mutagenic call (Species/Cell Type: Chinese hamster lung (V79) cells, Assay Type: Forward gene mutation at the HPRT or ouabain locus, Assay Code: V79-, Evaluation Type: Evaluation A (Pre-1980)) of the same compound?
**A.** The mutagenic call was “inactive; negative”.

**Q.** What about the mutagenic call (Species/Cell Type: Drosophila melanogaster, Assay Type: Aneuploidy, sex chromosome gain, chromosome aberrations, Assay Code: DAG+F, Evaluation Type: Evaluation A (Pre-1980)) of the same compound?
**A.** Its mutagenic call is “active; positive”.

**Q.** What about the mutagenic call (Species/Cell Type: Drosophila melanogaster, Assay Type: Aneuploidy, whole sex chromosome loss, chromosome aberrations, Assay Code: DAC+F, Evaluation Type: Evaluation A (Pre-1980)) of the same compound?
**A.** Its mutagenic call is “active; positive”.

**Q.** What about the mutagenic call (Species/Cell Type: Drosophila melanogaster, Assay Type: Sex-linked recessive lethal gene mutation, Assay Code: SRLT, Evaluation Type: Evaluation A (Pre-1980)) of the same compound?
**A.** The mutagenic call was “no conclusion”.

**Q.** And the mutagenic call [3]?
**A.** The mutagenic call was “inactive; negative”.

**Q.** What about the mutagenic call (Species/Cell Type: Glycine max (soybean), Assay Type: Gene mutation, Assay Code: GLM+, Evaluation Type: Evaluation A (Pre-1980)) of the same compound?
**A.** The mutagenic call was “active; positive”.

**Q.** What about the mutagenic call [1] of the same compound?
**A.** Its mutagenic call is “inactive; negative”.

**Q.** What about the mutagenic call (Species/Cell Type: Human lymphocytes, Assay Type: Sister-chromatid exchange (SCE) in vitro, Assay Code: SCLT, Evaluation Type: Evaluation B (Post-1980)) of the same compound?
**A.** The mutagenic call was “no conclusion”.

**Q.** And the mutagenic call (Species/Cell Type: Human, Assay Type: Sister-chromatid exchange (SCE) in vitro, Assay Code: SC1+, Evaluation Type: Evaluation B (Post-1980))?
**A.** The mutagenic call was “active; positive”.

**Q.** What about the mutagenic call (Species/Cell Type: Mammalian polychromatic erythrocytes, Assay Type: Micronucleus test, chromosome aberrations, Assay Code: MNT+U, Dose Response: Unconfirmed positive response, Evaluation Type: Evaluation B (Post-1980)) of the same compound?
**A.** The mutagenic call was “active; positive”.

**Q.** What about the mutagenic call (Species/Cell Type: Mouse (C3H/10T1/2) cells, Assay Type: Cell transformation, Assay Code: CTH+, Evaluation Type: Evaluation A (Pre-1980)) of the same compound?
**A.** The mutagenic call was “active; positive”.

**Q.** And the mutagenic call (Species/Cell Type: Neurospora crassa, Assay Type: Aneuploidy, chromosome aberrations, Assay Code: NEN-, Evaluation Type: Evaluation A (Pre-1980))?
**A.** Its mutagenic call is “inactive; negative”.

**Q.** What about the call (Species/Cell Type: Nonhuman, Assay Code: CCGT, Evaluation Type: Evaluation A (Pre-1980)) of the same compound?
**A.** The call was “no conclusion”.

**Q.** What about the mutagenic call (Species/Cell Type: Nonhuman, Assay Type: Sister-chromatid exchange (SCE) in vitro, Assay Code: SC2+, Evaluation Type: Evaluation B (Post-1980)) of the same compound?
**A.** Its mutagenic call is “active; positive”.

**Q.** What about the mutagenic call (Species/Cell Type: Saccharomyces cerevisiae, Assay Type: Mitotic recombination or gene conversion, Assay Code: YEH+, Evaluation Type: Evaluation A (Pre-1980)) of the same compound?
**A.** The mutagenic call was “active; positive”.

**Q.** And the mutagenic call (Species/Cell Type: Salmonella typhimurium, Assay Type: Forward and reverse gene mutation, host-mediated assay, Assay Code: HMA-, Evaluation Type: Evaluation A (Pre-1980))?
**A.** The mutagenic call was “inactive; negative”.

**Q.** And the mutagenic call (Species/Cell Type: Syrian hamster embryo (SA7/SHE) cells, Assay Type: Cell transformation, viral enhanced, Assay Code: CT7+, Evaluation Type: Evaluation A (Pre-1980))?
**A.** Its mutagenic call is “active; positive”.

**Q.** And the mutagenic call (Species/Cell Type: Syrian hamster embryo (SHE) cells, Assay Type: Cell transformation, clonal assay, Assay Code: CTC-, Evaluation Type: Evaluation A (Pre-1980))?
**A.** Its mutagenic call is “inactive; negative”.

**Q.** And the mutagenic call (Species/Cell Type: Vicia faba, Assay Type: Chromosome aberrations, Assay Code: VIC+, Evaluation Type: Evaluation A (Pre-1980))?
**A.** The mutagenic call was “active; positive”.

**Q.** With `O=S(=O)(O)c1ccc(N=Nc2c(O)ccc3ccccc23)c2ccccc12` as the compound, how does the mutagenic call (Species/Cell Type: Bacillus subtilis (H17 vs M45), Assay Type: Rec-assay, spot test, DNA effects (bacterial DNA repair), Assay Code: REWT, Evaluation Type: Evaluation A (Pre-1980)) read?
**A.** The mutagenic call was “no conclusion”.

**Q.** For `Cc1ccccc1N=Nc1c(N)ccc2ccccc12`, which mutagenic call (Species/Cell Type: Bacillus subtilis (H17 vs M45T), Assay Type: Rec-assay, spot test, DNA effects (bacterial DNA repair), Assay Code: REXT, Evaluation Type: Evaluation A (Pre-1980)) is on record?
**A.** The mutagenic call was “no conclusion”.

**Q.** Which mutagenic call [3] does the source give for `N[C@@H]1CONC1=O` here?
**A.** Its mutagenic call is “inactive; negative”.

**Q.** How did the mutagenic call [2] turn out when `COc1ccc(C(=C(c2ccc(OC)cc2)c2ccc(OC)cc2)c2ccc(OC)cc2)cc1` was run?
**A.** Its mutagenic call is “no conclusion”.

**Q.** `O=[N+]([O-])c1ccc(Oc2ccc(Cl)cc2Cl)cc1` was tested. Which mutagenic call (Species/Cell Type: Mammalian polychromatic erythrocytes, Assay Type: Micronucleus test, chromosome aberrations, Assay Code: MNTT, Evaluation Type: Evaluation A (Pre-1980)) did it give?
**A.** Its mutagenic call is “no conclusion”.

**Q.** And the call (Species/Cell Type: Nonhuman, Assay Code: CCG+, Evaluation Type: Evaluation A (Pre-1980))?
**A.** The call was “active; positive”.
